Reference: patent US8492559B2, “Substituted indole compounds” (Gruenenthal GmbH, priority 2009, dated 2013)

Target: T1, human B1R receptor (hB1R) (Homo sapiens, UniProt P46663)
T1 construct: expressed in transfected cells; host or cells: CHO K1 cells
T1 sequence (P46663 1-353): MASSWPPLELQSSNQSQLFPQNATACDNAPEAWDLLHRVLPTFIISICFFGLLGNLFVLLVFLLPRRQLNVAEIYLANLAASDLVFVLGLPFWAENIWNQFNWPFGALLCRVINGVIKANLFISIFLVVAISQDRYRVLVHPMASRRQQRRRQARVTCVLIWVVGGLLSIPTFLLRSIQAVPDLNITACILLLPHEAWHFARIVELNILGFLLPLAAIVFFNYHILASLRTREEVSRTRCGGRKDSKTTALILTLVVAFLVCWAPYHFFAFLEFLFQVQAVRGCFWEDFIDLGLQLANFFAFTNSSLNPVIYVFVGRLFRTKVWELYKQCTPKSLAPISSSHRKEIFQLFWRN
Assay: Functional investigation on the bradykinin 1 receptor (B1R), FLIPR Ca2+ assay, hB1R cells
Format: cell-based
Conditions: CHO-K1, 10 μM test substance; CHO K1 cells with human B1R; agonist Lys-Des-Arg9 bradykinin; % of maximum achievable inhibition; read-out: B1R antagonism, human [10 μM] % inhibition
Description: The agonistic or antagonistic action of substances can be quantified on the bradykinin 1 receptor (B1R) of the human and rat species with ectopically expressing cell lines (CHO K1 cells) and with the aid of a Ca^2+-sensitive dye (Fluo-4) using a fluorescent imaging plate reader (FLIPR). The indication in % activation is based on the Ca^2+ signal after addition of Lys-Des-Arg^9 bradykinin (0.5 nM) or Des-Arg^9 bradykinin (100 nM). Antagonists lead to a suppression of the Ca^2+ influx following administration of the agonist. The % inhibition in comparison with the maximum achievable inhibition is indicated.
1. Functional Investigation on the Bradykinin 1 Receptor (B1R)
The agonistic or antagonistic action of substances can be determined on the bradykinin 1 receptor (B1R) of the human and rat species with the following assay. According to this assay, the Ca^2+ inflow through the channel is quantified with the aid of a Ca^2+-sensitive dye (Fluo-4 type, Molecular Probes Europe BV, Leiden, Netherlands) in a fluorescent imaging plate reader (FLIPR, Molecular Devices, Sunnyvale, USA).
Chinese hamster ovary cells (CHO K1 cells) which are stably transfected with the human B1R gene (hB1R cells) or the B1R gene of the rat (rB1R cells) are used. For functional investigations these cells are plated-out onto black 96-well plates with a clear base (BD Biosciences, Heidelberg, Germany or Greiner, Frickenhausen, Germany) in a density of 20,000-35,000 cells/well. Overnight the cells are incubated at 37° C. and 5% CO2 in culture medium (hB1R cells: Ham's Nutrient Mixture F12, Gibco Invitrogen GmbH, Karlsruhe, Germany or DMEM, Sigma-Aldrich, Taufkirchen, Germany; rB1R cells: D-MEM/F12, Gibco Invitrogen, Karlsruhe, Germany) with 10 vol. % FBS (foetal bovine serum, Gibco Invitrogen GmbH, Karlsruhe, Germany or PAN Biotech GmbH, Aidenbach, Germany).
On the following day the cells are loaded with 2.13 μM Fluo-4 (Molecular Probes Europe BV, Leiden, Netherlands) in HBSS buffer (Hank's buffered saline solution, Gibco Invitrogen GmbH, Karlsruhe, Germany) with 2.5 mM probenecid (Sigma-Aldrich, Taufkirchen, Germany) and 10 mM HEPES (Sigma-Aldrich, Taufkirchen, Germany) for 60 min at 37° C. The plates are subsequently washed twice with HBSS buffer, and HBSS buffer which additionally contains 0.1% BSA (bovine serum albumin; Sigma-Aldrich, Taufkirchen, Germany), 5.6 mM glucose and 0.05% gelatine (Merck KGaA, Darmstadt, Germany) is added. After a further incubation of 20 minutes at room temperature, the plates are inserted into the FLIPR for Ca^2+ measurement.
Alternatively they are washed with buffer A (15 mM HEPES, 80 mM NaCl, 5 mM KCl, 1.2 mM CaCl2, 0.7 mM MgSO4, 2 g/l glucose, 2.5 mM probenecid) and loaded with buffer A with added 2.5 μM Fluo-4 and 0.025% Pluronic F127 (Sigma-Aldrich, Taufkirchen, Germany). The cells are then washed twice with buffer A and incubated for 30 minutes with buffer A, which additionally contains 0.05% BSA and 0.05% gelatine, at room temperature and then used for Ca^2+ measurement in the FLIPR. The Ca^2+-dependent fluorescence is measured here before and after addition of substances (λex=488 nm, λem=540 nm). The quantification is performed by measuring the highest fluorescence intensity (FC, fluorescence counts) over time.
The FLIPR protocol comprises two additions of substance. Test substances (10 μM) are first pipetted onto the cells and the Ca^2+ inflow is compared with the control (hB1R: Lys-Des-Arg^9 bradykinin>=50 nM; rB1R: Des-Arg^9 bradykinin 10 μM). The value in % activation based on the Ca^2+ signal after addition of Lys-Des-Arg^9 bradykinin (>=50 nM) or Des-Arg^9 bradykinin (10 μM) is obtained therefrom. After incubation for 10-20 minutes, Lys-Des-Arg^9 bradykinin (hB1R) or Des-Arg^9 bradykinin (rB1R) is applied in the EC80 concentration and the inflow of Ca^2+ is likewise determined.
Antagonists lead to a suppression of the Ca^2+ inflow. The % inhibition in comparison with the maximum achievable inhibition is calculated. […]

inhibition at 10 µM: 100%
SMILES: COc1cc(C)c(S(=O)(=O)Nc2cccc3ccn(CC(=O)N4CCC5(CC4)CCN(c4ccncc4)CC5)c23)c(C)c1 [G_CC-91, 4-Methoxy-2,6-dimethyl-N-[1-[2-oxo-2-(3-pyridin-4-yl-3,9-diazaspiro-[5.5]undecan-9-yl)-ethyl]-1H-indol-7-yl]-benzenesulfonic acid amide]
